Results on nine molecules are retold here after PubChem BioAssay (NCI).

Several values for one entry are separate records, joined by “and”; a condition that tells them apart may be missing. Identical values can stand only once.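 48-hour exposure; five concentrations; linearly interpolated endpoints. GI50: concentration for 50% inhibition of growth. TGI is the concentration that stops growth completely.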

Among the test systems are EKVX NSCLC; SK-MEL-5 melanoma; NCI-H460 lung; NCI/ADR-RES ovarian; LOX IMVI melanoma; SK-OV-3 ovarian; T-47D breast; NCI-H226 lung; SR leukemia; HCT-116 colon.
Assay in all cases: growth of human tumour cells (NCI), 48 h

For the molecule `COc1ccc(C(C#N)NC23CC4CC(CC(C4)C2)C3)cc1OC` (stereo not given), the TGI in the experiment on EKVX NSCLC, with SK-MEL-5 melanoma, in the experiment on NCI-H460 lung, in the experiment with NCI/ADR-RES ovarian, in the experiment with LOX IMVI melanoma and with SK-OV-3 ovarian was above 100 µM in each case. In addition, the TGI in the experiment on T-47D breast, in the experiment on NCI-H226 lung, in the experiment on SR leukemia and in the experiment with HCT-116 colon was above 100 µM throughout.
Take `O=C(CCN1CCOCC1)Nc1ccc(F)cc1F`: the TGI in the experiment with EKVX NSCLC, with SK-MEL-5 melanoma, in the experiment with NCI-H460 lung, in the experiment with NCI/ADR-RES ovarian, in the experiment with LOX IMVI melanoma and with SK-OV-3 ovarian was above 100 µM throughout. The TGI in the experiment with T-47D breast, in the experiment with NCI-H226 lung, in the experiment on SR leukemia and in the experiment on HCT-116 colon was above 100 µM in each case.
Turning to `CC(C)(C)[Si](C)(C)OCC1CCC(n2cnc3c(=O)[nH]cnc32)O1` (stereo not given), the TGI in the experiment with EKVX NSCLC, in the experiment with SK-MEL-5 melanoma, in the experiment with NCI-H460 lung, in the experiment with NCI/ADR-RES ovarian, with LOX IMVI melanoma and with SK-OV-3 ovarian was above 100 µM in each case. For the same molecule, the TGI in the experiment on T-47D breast, with NCI-H226 lung, in the experiment with SR leukemia and with HCT-116 colon was above 100 µM throughout.
For the molecule `Cc1oc2nc[nH]c(=O)c2c1C(=O)/C=C/c1ccc(Cl)cc1`, the GI50 was 2.37 µM with EKVX NSCLC; 2.25 µM with SK-MEL-5 melanoma; 2.56 µM in the experiment with NCI-H460 lung; 2.44 µM in the experiment on NCI/ADR-RES ovarian; 1.6 µM with LOX IMVI melanoma; 3.09 µM with SK-OV-3 ovarian. Moreover, the GI50 with T-47D breast was 1.72 µM; in the experiment with NCI-H226 lung it was 1.96 µM; in the experiment on SR leukemia it was 1.51 µM; with HCT-116 colon, 1.59 µM. Further, the TGI with EKVX NSCLC was found to be 15.9 µM; in the experiment on SK-MEL-5 melanoma, 5.85 µM; in the experiment on NCI-H460 lung it was 7.03 µM; in the experiment on NCI/ADR-RES ovarian, 21 µM; in the experiment on LOX IMVI melanoma, 3.32 µM; in the experiment on SK-OV-3 ovarian it was 13.8 µM. Further, the TGI with T-47D breast is 7.82 µM; in the experiment on NCI-H226 lung it was 7.36 µM; in the experiment on SR leukemia, 6.3 µM; in the experiment with HCT-116 colon it was 3.94 µM.
Regarding `COc1cc(-c2nn(-c3ccc(NC(=O)Nc4ccc(Cl)c(Cl)c4)cc3)cc2-c2ccncc2)ccc1Cl`, the GI50 was 2.61 µM in the experiment on EKVX NSCLC; 2.48 µM in the experiment with SK-MEL-5 melanoma; 2.42 µM in the experiment with NCI-H460 lung; 3.24 µM in the experiment on NCI/ADR-RES ovarian; 1.98 µM in the experiment on LOX IMVI melanoma; 3.96 µM with SK-OV-3 ovarian. Also, the GI50 in the experiment on T-47D breast is 3.02 µM; in the experiment with NCI-H226 lung, 4.19 µM; in the experiment with SR leukemia it was 3.77 µM; with HCT-116 colon, 3.08 µM. The TGI was 15.3 µM in the experiment on EKVX NSCLC; 8.29 µM in the experiment on SK-MEL-5 melanoma; 5.64 µM in the experiment with NCI-H460 lung; above 100 µM in the experiment with NCI/ADR-RES ovarian; 4.75 µM in the experiment with LOX IMVI melanoma; above 100 µM with SK-OV-3 ovarian. The TGI is 54.6 µM in the experiment with T-47D breast, 69.1 µM in the experiment with NCI-H226 lung, above 100 µM in the experiment with SR leukemia and 11 µM in the experiment on HCT-116 colon.
For the molecule `NC(C/[N+]([O-])=N/O)C(=O)O` (stereo not given), the TGI in the experiment on EKVX NSCLC is > 100 µM and 371 µM; with SK-MEL-5 melanoma, > 42.7 µM and > 100 µM and 114 µM; in the experiment on NCI-H460 lung it was > 78.3 µM and > 100 µM and 223 µM; in the experiment on NCI/ADR-RES ovarian, above 434 µM; with LOX IMVI melanoma, > 100 µM and 153 µM; in the experiment with SK-OV-3 ovarian, > 100 µM and 300 µM. Also, the figures for the TGI in the experiment on T-47D breast, with NCI-H226 lung and in the experiment with SR leukemia were above 500 µM, above 468 µM and above 228 µM, respectively. Moreover, the GI50 in the experiment on SK-MEL-5 melanoma was 1.9 µM and 8.31 µM and 1.46 µM; with SK-OV-3 ovarian it was 58 µM and > 100 µM and 55.7 µM; with T-47D breast it was 198 µM; in the experiment with HCT-116 colon it was 1.01 µM and 2.07 µM and 0.954 µM.
As for `COc1ccc(Cl)cc1Nc1nc(C(F)(F)F)ccc1C(=O)N/N=C/c1ccc([N+](=O)[O-])cc1`, the GI50 is 2.01 µM in the experiment on EKVX NSCLC; 1.98 µM in the experiment with SK-MEL-5 melanoma; 1.9 µM in the experiment on NCI-H460 lung; 2.25 µM in the experiment with NCI/ADR-RES ovarian; 1.39 µM in the experiment on LOX IMVI melanoma; 1.73 µM in the experiment with SK-OV-3 ovarian. The GI50 in the experiment with T-47D breast is 1.81 µM; in the experiment on NCI-H226 lung, 2.01 µM; in the experiment on SR leukemia it was 1.76 µM; in the experiment with HCT-116 colon, 2.45 µM. For the same molecule, the TGI in the experiment with EKVX NSCLC came out at 9.27 µM; in the experiment on SK-MEL-5 melanoma it was 4.86 µM; with NCI-H460 lung, 4.86 µM; in the experiment on NCI/ADR-RES ovarian, 6.7 µM; with LOX IMVI melanoma, 4.79 µM; in the experiment with SK-OV-3 ovarian it was 5.77 µM. In addition, the TGI in the experiment with T-47D breast was 7.75 µM; in the experiment on NCI-H226 lung, 8.65 µM; with SR leukemia, 4.95 µM; with HCT-116 colon, 14.7 µM.
As for `COC(=O)CCC(C)[C@H]1CCC2C3C(C[C@H](OC(C)=O)[C@@]21C)[C@@]1(C)CCC2(C[C@H]1C[C@H]3OC(C)=O)OOC1(CCC(C)CC1)OO2` (stereo not given in full), the GI50 in the experiment on EKVX NSCLC is 3.79 µM and 10.1 µM; with NCI-H460 lung, 4.22 µM and 18.7 µM. Also, the TGI is 21.5 µM and 52.4 µM with EKVX NSCLC; above 100 µM in the experiment on SK-MEL-5 melanoma; above 100 µM in the experiment with NCI-H460 lung; above 100 µM with NCI/ADR-RES ovarian; above 100 µM with LOX IMVI melanoma; above 100 µM in the experiment with SK-OV-3 ovarian. Besides, the TGI in the experiment on T-47D breast, with NCI-H226 lung, with SR leukemia and with HCT-116 colon was above 100 µM throughout.
As to `COc1ccc(C[n+]2c3ccccc3n3c4ccc(N)cc4ccc32)c(OC)c1OC`, the GI50 was 3.08 µM with EKVX NSCLC; 1.44 µM in the experiment with SK-MEL-5 melanoma; 3.54 µM in the experiment on NCI-H460 lung; above 100 µM in the experiment with NCI/ADR-RES ovarian; 10.7 µM in the experiment with LOX IMVI melanoma; 10.4 µM in the experiment with SK-OV-3 ovarian. The GI50 was 1.42 µM in the experiment with T-47D breast, 12.8 µM in the experiment on NCI-H226 lung, 2.75 µM with SR leukemia and 12.6 µM in the experiment with HCT-116 colon. The TGI in the experiment with EKVX NSCLC is 58.9 µM; with SK-MEL-5 melanoma, 7.27 µM; in the experiment with NCI-H460 lung it was 18.2 µM; in the experiment with NCI/ADR-RES ovarian, above 100 µM; in the experiment on LOX IMVI melanoma, 36.3 µM; with SK-OV-3 ovarian, 49.2 µM. Also, the TGI in the experiment on T-47D breast was found to be 7.03 µM; in the experiment on NCI-H226 lung, 60.8 µM; with SR leukemia, 19.2 µM; in the experiment on HCT-116 colon, 83.7 µM.
